Key:
[1] = target: T1, glycine site of the NMDA receptor complex (Rattus norvegicus, UniProt P35439); assay: [3H]-glycine binding (Test 1); details: [3H]-glycine 10 nM, rat cerebral cortical membrane, 0° C., 10 min, pH 7.1
T1 construct: thawed rat cerebral cortical membrane homogenate; from tissue; host or cells: rat cerebral cortex, membrane homogenate
Experimental: The glycine site binding activity of these compounds of the present invention can be illustrated by determining their capability for displacing radioactively labelled glycine from the glycine site.
The displacement activity of the compounds may be shown by determining the IC50 value which represents the concentration (μM) which causes a displacement of 50% of the specific binding of [^3 H]-glycine.
1 ml of thawed rat cerebral cortical membrane homogenate in HEPES-Tris (5 mM) and MgCl2 (1 mM) pH 7.1 were incubated at 0° C. for 10 min. with 25 μl [^3 H]-glycine (10 nM final concentration) and the test compound and buffer. Non-specific binding was determined by incubating with D-serine (1 mM final concentration). The binding reaction was terminated by centrifugation at 15,000×g at 4° C. followed by washing of the pellet with three times 3 ml of ice-cold buffer. Bound radioactivity was measured by scintillation counting. IC50 was determined by Hill analysis of at least four concentrations of test compound.

[2] = test system: NMDA stimulated [3H]-GABA release; assay: Inhibition of NMDA stimulated [3H]-GABA release from cultured mouse cerebral cortex interneurons (Test 3); assay type: cell-based; details: 3 μg/ml NMDA, 37° C.
Experimental: The NMDA antagonistic properties of the compounds is illustrated by determining their capability to antagonize NMDA stimulated [^3 H]-GABA release from cultured mouse cortex neurons. The NMDA antagonistic activity of the compounds may be shown by determining the IC50 value, which represents the concentration (μM) which inhibits 50% of NMDA induced [^3 H]-GABA release.
Release experiments are performed using the model described by Drejer et al. (Life Sci. 38, 2077 (1986)). To cerebral cortex interneurons cultured in petri dishes (30 mm) are added 100 μg/ml 3-vinyl-GABA one hour before the experiment in order to inhibit degradation of GABA in the neurons. 30 min. before the experiment 5 μCi [^3 H]-GABA is added to each culture and after this preloading period the cells are washed twice with HEPES buffered saline (HBS) containing 10 mM HEPES, 135 mM NaCl, 5 mM KCl, 0.6 mM MgSO4, 1.0 mM CaCl2 and 6 mM D-glucose; pH 7 and placed in a superfusion system. This system consists of a peristaltic pump continuously delivering thermostated 37° C. superfusion medium from a reservoir to the top of a slightly tilted petri dish. The cell monolayer at the bottom of the dish is covered with a piece of nylon mesh to facilitate dispersion of medium over the cell layer. The medium is continuously collected from the lower part of the dish and delivered to a fraction collector. Initially, the cells are superfused with HBS for 15 min. (flow rate 2 ml/min.). Then cells are stimulated for 30 sec. every 4 min. by changing the superfusion medium from HBS to a corresponding medium containing NMDA and antagonist according to the following scheme:
Stimulation no. 1:3 μg/ml NMDA
Stimulation no. 2:3 μg/ml NMDA+0.3 μg/ml antagonist
Stimulation no. 3:3 μg/ml NMDA+3.0 μg/ml antagonist
The release of [^3 H]-GABA in the presence of NMDA is corrected for the mean basal release before and after stimulation. The stimulated release in the presence of antagonist is expressed relative to the stimulated release by NMDA alone and the IC50 value is calculated.

[3] = target: T2, NMDA receptor glycine site (glycine enhanced [3H]-MK-801 binding) (Rattus norvegicus, UniProt P35439); assay: Antagonism of glycine enhanced [3H]-MK-801 binding (Test 2); details: Schild analysis; [3H]-MK-801 1 nM, glutamate 300 nM, rat cerebral membrane, 23° C., 60 min, pH 7.40
T2 construct: thawed and extensively washed rat cerebral membrane homogenate; from tissue; host or cells: rat cerebrum, extensively washed membrane homogenate
Experimental: The glycine antagonism is measured by determining the Ki value which represents the dissociation constant (μM) of the receptor-antagonist complex.
1 ml of thawed and extensively washed rat cerebral membrane homogenate in HEPES-NaOH (20 mM) pH 7.40 were incubated at 23° C. for 60 min. with 25 μl [^3 H]-MK-801 (1 nM final concentration), 25 μl glutamate (300 nM final concentration), test compound in concentrations corresponding to 0, 0.5, 2 and 5 times the IC50 value from the [^3 H]-glycine binding assay (test 1) for each concentration of glycine (10; 100; 1,000; 10,000 and 100,000 nM final concentration). The binding reaction was terminated by adding 5 ml of ice-cold buffer followed by rapid filtration through Whatman GF/C glass fiber filters and 5 ml wash with ice-cold buffer. Bound radioactivity was measured by scintillation counting. Ki values were determined by Schild analysis of the data using
log(dosis ration-1)=log[Inhibitor]-log(Ki).

[4] = test system: NMDA receptor/ionophor complex, allosteric modulatory (glycine) site; details: literature; cited from earlier work
NMDA receptor = details: cited from earlier work

SMILES | IC50 [1] | IC50 [2] | Ki [3] | also measured
CCCCC(C(=O)O)n1c(=O)c(=O)[nH]c2ccccc21 (centres unmarked) [Example 8, 1-((1-Carboxy)pentyl)-quinoxaline-2,3(1H,4H)-dione] | 2200 nM | 1880 nM | 770 nM | 
O=C(O)C(c1ccccc1)n1c(=O)c(=O)[nH]c2ccccc21 (centres unmarked) [Example 10, 1-(1-Carboxy-1-phenylmethyl)quinoxaline-2,3(1H,4H)-dione] | 8000 nM | 2620 nM |  | 
Cc1cc2[nH]c(=O)c(=O)n(CC(=O)O)c2cc1C [Example 5, 1-Carboxymethyl-6,7-dimethylquinoxaline-2,3(1H,4H)-dione] | 554 nM | 509 nM | 212 nM | 
O=C(O)c1cc(O)c2ccc(Cl)cc2n1 [7-chlorokynurenate] |  |  |  | agonist/antagonist activity at the glycine site [4]: quite strong, but non-selective antagonists of glycine at the glycine site
CCCCC(C(=O)O)n1c(=O)c(=O)[nH]c2cc(Cl)c(Cl)cc21 (centres unmarked) [Example 16, 1-((1-carboxy)pentyl)-6,7-dichloroquinoxaline-2,3(1H,4H)-dione] | 409 nM |  | 100 nM | 
O=C(O)Cn1c(=O)c(=O)[nH]c2cc([N+](=O)[O-])ccc21 [Example 7, 1-Carboxymethyl-6-nitroquinoxaline-2,3(1H,4H)-dione] | 2000 nM |  |  | 
O=C(O)Cn1c(=O)c(=O)[nH]c2cc(Br)ccc21 [Example 3, 6-Bromo-1-carboxymethylquinoxaline-2,3(1H,4H)-dione] | 544 nM | 505 nM | 127 nM | 
O=C1C[C@@H]2OCC=C3CN4CC[C@]56c7ccccc7N1[C@H]5[C@H]2[C@H]3C[C@H]46 [strychnine] |  |  |  | sensitivity of the glycine response to strychnine (NMDA receptor; cultured neurons, literature): insensitive
C[C@@H](N)C(=O)O [D-alanine] |  |  |  | agonist/antagonist activity at the glycine site [4]: strong agonist activity
O=C(O)Cn1c(=O)c(=O)[nH]c2cc(Cl)cc(Cl)c21 [Example 22, 1-Carboxymethyl-6,8-dichloroquinoxaline-2,3(1H, 4H)-dione] | 852 nM |  |  | 
CCCCCC(C(=O)O)n1c(=O)c(=O)[nH]c2cc(Br)ccc21 (centres unmarked) [Example 15, 1-((1-Carboxy)hexyl)-6-bromoquinoxaline-2,3(1H, 4H)-dione] | 587 nM | 2640 nM | 49 nM | 
N[C@@H]1CONC1=O [D-cycloserine] |  |  |  | agonist/antagonist activity at the glycine site [4]: partial agonists
O=C(O)Cn1c(=O)c(=O)[nH]c2cc(Cl)c(Cl)cc21 [Example 1, 1-Carboxymethyl-6,7-dichloroquinoxaline-2,3(1H,4H)-dione] | 350 nM | 163 nM | 162 nM | 
N[C@H](CO)C(=O)O [D-serine] |  |  |  | agonist/antagonist activity at the glycine site [4]: strong agonist activity
CCCC(C(=O)O)n1c(=O)c(=O)[nH]c2ccccc21 (centres unmarked) [Example 9, 1-((1-Carboxy)butyl)quinoxaline-2,3(1H,4H)-dione] | 5000 nM | 2860 nM | 1900 nM | 
O=C(O)Cn1c(=O)c(=O)[nH]c2cc(Br)c(Br)cc21 [Example 12, 1-Carboxymethyl-6,7-dibromoquinoxaline-2,3(1H,4H)-dione] | 849 nM | 127 nM | 390 nM | 
N#Cc1cc2[nH]c(=O)c(=O)[nH]c2cc1[N+](=O)[O-] [CNQX, 6-cyano-7-nitroquinoxaline-2,3-dione] |  |  |  | agonist/antagonist activity at the glycine site [4]: weak antagonists
NC1CCN(O)C1=O (centres unmarked) [HA-966, 3-amino-1-hydroxy-2-pyrrolidone] |  |  |  | agonist/antagonist activity at the glycine site [4]: weak antagonists
O=C(O)Cn1c(=O)c(=O)[nH]c2ccc([N+](=O)[O-])cc21 [Example 19, 1-Carboxymethyl-7-nitroquinoxaline-2,3(1H,4H)-dione] | 7000 nM |  |  | 
O=C(O)Cn1c(=O)c(=O)[nH]c2cc(Cl)ccc21 [Example 6, 1-Carboxymethyl-6-chloroquinoxaline-2,3(1H,4H)-dione] | 520 nM | 394 nM | 3400 nM | 
CC(C(=O)O)n1c(=O)c(=O)[nH]c2ccccc21 (centres unmarked) [Example 11, 1-((1-Carboxy)ethyl)quinoxaline-2,3(1H,4H)-dione] | 3000 nM |  | 900 nM | 
NCC(=O)O [glycine] |  |  |  | glycine site binding affinity [4]: high affinity binding; effect on NMDA receptor agonist induced responses (NMDA receptor): increase NMDA receptor agonist induced responses
COc1ccc2c(c1)n(O)c(=O)c(=O)n2CC(=O)O [Example 13, 1-Carboxymethyl-4-hydroxy-6-methoxyquinoxalin-2,3(1H,4H)-dione] | 8000 nM | > 3750 nM |  | 
O=C(O)Cn1c(=O)c(=O)[nH]c2cc(F)c(F)cc21 [Example 4, 1-Carboxymethyl-6,7-difluoroquinoxaline-2,3(1H,4H)-dione] | 500 nM | 328 nM | 118 nM | 

— patent publication US5166155A, “Quinoxaline-2,3-dione compounds and their preparation and use” (Novo Nordisk A/S, priority 1990, dated 1992)
